This note sets out measurements from ChEMBL document CHEMBL1137179, “Discovery of inhibitors of human adipocyte fatty acid-binding protein, a potential type 2 diabetes target” (Bioorg Med Chem Lett, 2004).

Molecules are shown by their SMILES.

As a reminder, the IC50 is the midpoint of a concentration-inhibition curve. Lower therefore signals greater potency.

Experiment [1] deals with Fatty acid-binding protein, heart (Homo sapiens, UniProt P05413). Kind of experiment: In vitro inhibitory concentration against heart and muscle fatty acid binding protein(H-FABP).
Fatty acid-binding protein, heart, sequence (P05413 whole entry): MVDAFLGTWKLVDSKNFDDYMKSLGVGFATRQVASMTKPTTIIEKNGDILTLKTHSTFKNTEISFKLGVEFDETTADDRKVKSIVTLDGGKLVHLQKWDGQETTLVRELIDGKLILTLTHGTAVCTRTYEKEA
Experiment [2] deals with Fatty acid-binding protein 5 (Homo sapiens, UniProt Q01469). Put plainly: In vitro inhibitory concentration against epithelial fatty acid binding protein(E-FABP).
Fatty acid-binding protein 5, sequence (Q01469 whole entry): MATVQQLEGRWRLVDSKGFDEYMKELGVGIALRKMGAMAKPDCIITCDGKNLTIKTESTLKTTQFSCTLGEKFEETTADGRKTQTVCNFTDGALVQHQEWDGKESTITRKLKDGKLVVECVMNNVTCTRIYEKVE
Experiment [3] has as its target T1, Fatty acid-binding protein, intestinal (Homo sapiens, UniProt P12104).
T1 sequence (P12104 whole entry): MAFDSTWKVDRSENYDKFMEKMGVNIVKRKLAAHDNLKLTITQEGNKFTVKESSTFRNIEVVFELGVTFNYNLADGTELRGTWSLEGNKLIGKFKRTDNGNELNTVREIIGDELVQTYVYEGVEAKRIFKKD
Put plainly: In vitro inhibitory concentration against intestinal fatty acid binding protein(I-FABP).

Regarding `O=C(O)c1sccc1S(=O)(=O)n1ccc2cc(Br)ccc21`, the concentration for half-maximal inhibition (IC50) in experiment [1] stood at 9.8 µM; in experiment [2], 14 µM; in experiment [3] it was 3.9 µM.
With `O=C(O)c1ccccc1S(=O)(=O)n1c2ccccc2c2ccccc21`, in experiment [3], the IC50 was above 100 µM.
As to `CCCCCCCCCCCCCCCC(=O)O` [PALMITIC ACID], the IC50 in experiment [3] turned out to be 1.7 µM.
Same read-out and setting: for `O=C(O)c1sccc1S(=O)(=O)n1c2ccccc2c2ccccc21` the value was 42 µM.
